Source: the supplement of paper PMC4862054

Tests used:
MDA-MB-453 [1] = assay: drug sensitivity score (DSS), CellTiter-Blue viability (DSS (AUC-based score)); higher = stronger viability inhibition; extreme values may be limits of the assay; conditions: incubation time: 72 h
Summary of the method: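 Drug sensitivity scores correspond to the area under the fitted dose-response curve. Breast cancer cell lines were incubated 72 h with compound at 5 or 9 concentrations in 384-well plates. Viability, read as CellTiter-Blue fluorescence at 560/590 nm, was normalised per plate to 0.1 % DMSO and a positive kill control.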

HCC1937 [2] = assay: normalised viability (% of control), CellTiter-Blue; higher = more viable cells (about 100 = DMSO control); conditions: incubation time: 72 h
Summary of the method: (§1)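 After 72 h on compound-loaded 384-well plates, breast cancer cell lines received 2.5 µl CellTiter-Blue reagent for 2 h at 37 °C. Fluorescence at 560/590 nm was scaled per plate so that vehicle was 100 and a positive kill control was 0. The value stands for normalised viability at a single listed concentration of the series.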

DU-4475 [3] = assay: as above; conditions: incubation time: 72 h
Summary of the method: as §1

HCC1143 [4] = assay: as above; conditions: incubation time: 72 h
Summary of the method: as §1

MDA-MB-436 [5] = assay: as above; conditions: incubation time: 72 h
Summary of the method: as §1

BT-474 [6] = assay: as above; conditions: incubation time: 72 h
Summary of the method: as §1

MDA-MB-453 [7] = assay: as above; conditions: incubation time: 72 h
Summary of the method: as §1

HCC1599 [8] = assay: as above; conditions: incubation time: 72 h
Summary of the method: as §1

Hs578T [9] = assay: as above; conditions: incubation time: 72 h
Summary of the method: as §1

HCC1937 [10] = assay: normalised viability (% of control), CellTiter-Blue; higher = more viable cells (about 100 = DMSO control); conditions: 100 nM; incubation time: 72 h
Protocol: (§2)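 DSRT, CellTiter-Blue viability, 72 h incubation. Signal is normalised to DMSO and benzethonium chloride controls. Value is the normalised response at dose 3.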

MDA-MB-231 = assay: as above; conditions: 100 nM; incubation time: 72 h
Protocol: as §2

CAL-120 = assay: as above; conditions: 100 nM; incubation time: 72 h
Protocol: as §2

BT-549 = assay: as above; conditions: 100 nM; incubation time: 72 h
Protocol: as §2

CAL-85-1 = assay: as above; conditions: 10 nM; incubation time: 72 h
Protocol: as §2

SK-BR-3 = assay: as above; conditions: 100 nM; incubation time: 72 h
Protocol: as §2

DU-4475 [11] = assay: as above; conditions: 10 nM; incubation time: 72 h
Protocol: as §2

HCC1143 [12] = assay: as above; conditions: 100 nM; incubation time: 72 h
Protocol: as §2

MDA-MB-436 [13] = assay: as above; conditions: 100 nM; incubation time: 72 h
Protocol: as §2

CAL-51 = assay: as above; conditions: 10 nM; incubation time: 72 h
Protocol: as §2

BT-474 [14] = assay: as above; conditions: 100 nM; incubation time: 72 h
Protocol: as §2

MDA-MB-453 [15] = assay: as above; conditions: 10 nM; incubation time: 72 h
Protocol: as §2

MFM-223 = assay: as above; conditions: 100 nM; incubation time: 72 h
Protocol: as §2

CAL-148 = assay: as above; conditions: 10 nM; incubation time: 72 h
Protocol: as §2

HCC1599 [16] = assay: as above; conditions: 100 nM; incubation time: 72 h
Protocol: as §2

Hs578T [17] = assay: as above; conditions: 100 nM; incubation time: 72 h
Protocol: as §2

MDA-MB-468 = assay: as above; conditions: 100 nM; incubation time: 72 h
Protocol: as §2

HDQ-P1 = assay: as above; conditions: 10 nM; incubation time: 72 h
Protocol: as §2

CO[C@@H]1[C@H](N(C)C(=O)c2ccccc2)C[C@H]2O[C@]1(C)n1c3ccccc3c3c4c(c5c6ccccc6n2c5c31)C(=O)NC4 [Midostaurin]
Conditions | drug sensitivity score | normalised viability [%]
BT-474 [14] | – | 114
BT-549 | – | 88.1
CAL-51 | – | 91.9
CAL-85-1 | – | 103
CAL-120 | – | 107
CAL-148 | – | 107
DU-4475 [11] | – | 103
HCC1143 [12] | – | 134
HCC1599 [16] | – | 101
HCC1937 [10] | – | 82.8
HDQ-P1 | – | 85.3
Hs578T [17] | – | 82.2
MDA-MB-231 | – | 103
MDA-MB-436 [13] | – | 85.6
MDA-MB-453 [1] | 7.82 | –
MDA-MB-453 [15] | – | 85.7
MDA-MB-468 | – | 112
MFM-223 | – | 108
SK-BR-3 | – | 102

normalised viability [%]
Conditions | BT-474 [6] | DU-4475 [3] | HCC1143 [4] | HCC1599 [8] | HCC1937 [2] | Hs578T [9] | MDA-MB-436 [5] | MDA-MB-453 [7]
3 nM | – | 94.7 | – | – | – | – | – | 108
10 nM | 105 | – | 145 | 106 | 111 | 129 | 94.2 | –
30 nM | – | 92.4 | – | – | – | – | – | 92.1
100 nM | – | 101 | – | – | – | – | – | 87.2
1000 nM | 91.3 | – | 75 | 78.8 | 56.5 | 31 | 62.7 | –
10000 nM | 84.3 | – | 61.3 | 72.6 | 44.9 | 15.6 | 57.2 | –

CO[C@@]12[C@H](COC(N)=O)C3=C(C(=O)C(C)=C(N)C3=O)N1C[C@@H]1N[C@@H]12 [Mitomycin C]
Conditions | drug sensitivity score | normalised viability [%]
BT-474 [14] | – | 127
BT-549 | – | 74.4
CAL-51 | – | 108
CAL-85-1 | – | 104
CAL-120 | – | 93.8
CAL-148 | – | 101
DU-4475 [11] | – | 103
HCC1143 [12] | – | 83.7
HCC1599 [16] | – | 108
HCC1937 [10] | – | 69.2
HDQ-P1 | – | 103
Hs578T [17] | – | 97.1
MDA-MB-231 | – | 107
MDA-MB-436 [13] | – | 96.5
MDA-MB-453 [1] | 5.18 | –
MDA-MB-453 [15] | – | 87.6
MDA-MB-468 | – | 92
MFM-223 | – | 89.1
SK-BR-3 | – | 91.9

normalised viability [%]
Conditions | BT-474 [6] | DU-4475 [3] | HCC1143 [4] | HCC1599 [8] | HCC1937 [2] | Hs578T [9] | MDA-MB-436 [5] | MDA-MB-453 [7]
3 nM | – | 105 | – | – | – | – | – | 124
10 nM | 112 | – | 78.3 | 110 | 88.4 | 113 | 100 | –
30 nM | – | 83.6 | – | – | – | – | – | 94.5
100 nM | – | 91 | – | – | – | – | – | 91.4
1000 nM | 95.5 | – | 72.4 | 73.2 | 45.4 | 98.9 | 76.2 | –
10000 nM | 53.7 | – | 20.4 | 14.6 | 21.6 | 5.32 | 17.6 | –
